These results are taken from patent US9085555B2, “Complement pathway modulators and uses thereof” (priority 2011, dated 2015).

What is called IC50 is the concentration at which inhibition is half-maximal.

The structures appear in SMILES notation.

The target in this assay is Factor D (Homo sapiens (Human), UniProt P00746). Nature of the assay: biochemical. Conditions: read-out: IC50. The class given is biochemical.
Sequence of Factor D (P00746 26-253): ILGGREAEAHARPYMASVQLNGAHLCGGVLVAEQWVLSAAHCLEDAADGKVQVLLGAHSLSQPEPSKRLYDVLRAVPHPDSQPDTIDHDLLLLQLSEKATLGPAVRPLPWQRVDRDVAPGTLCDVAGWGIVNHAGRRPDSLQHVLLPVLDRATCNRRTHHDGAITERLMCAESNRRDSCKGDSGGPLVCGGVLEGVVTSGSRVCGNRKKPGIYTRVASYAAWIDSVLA
As for `CO[C@H]1[C@@H](C(=O)NCc2cccc(Cl)c2F)N(C(=O)Cn2nc(C(N)=O)c3cc(C)ncc32)C[C@@H]1F` [Example 661, 1-{2-[(2S,3S,4S)-2-(3-Chloro-2-fluoro-benzylcarbamoyl)-4-fluoro-3-methoxy-pyrrolidin-1-yl]-2-oxo-ethyl}-5-methyl-1H-pyrazolo[3,4-c]pyridine-3-carboxylic acid amide], the IC50 was 10 nM.

Consider `CC(=O)c1cn(CC(=O)N2[C@@H]3C[C@@H]3C[C@H]2C(=O)N[C@H](CCO)c2cccc(Cl)c2F)c2ncccc12` [Example 557, (1R,3S,5R)-2-[2-(3-Acetyl-pyrrolo[2,3-b]pyridin-1-yl)-acetyl]-2-aza-bicyclo[3.1.0] hexane-3-carboxylic acid [(R)-1-(3-chloro-2-fluoro-phenyl)-3-hydroxy-propyl]-amide], for which the IC50 worked out at 134 nM.

For `COCCN(C)Cc1cc(Cl)c(F)c(CNC(=O)[C@@H]2C[C@@H](F)CN2C(=O)Nc2cn(C(N)=O)c3ccccc23)c1` [Example 4, (2S,4R)-4-Fluoro-pyrrolidine-1,2-dicarboxylic acid 1-[(1-carbamoyl-1H-indol-3-yl)-amide] 2-(3-chloro-2-fluoro-5-{[(2-methoxy-ethyl)-methyl-amino]-methyl}-benzylamide)], the 50% inhibitory concentration (IC50) came out at 3980 nM.

As for `NC(=O)n1cc(NC(=O)N2C[C@@H](N)C[C@H]2C(=O)Nc2cccc(-c3ccccc3)c2)c2ccccc21` [Example 103, (2S,4S)-4-Amino-pyrrolidine-1,2-dicarboxylic acid 2-biphenyl-3-ylamide 1-[(1-carbamoyl-1H-indol-3-yl)-amide]], the IC50 was 550 nM.

Consider `CN(C)C[C@@]1(F)C[C@@H](C(=O)NCc2cccc(Cl)c2F)N(C(=O)Cc2cn(C(N)=O)c3ccccc23)C1` [Example 445, 3-{2-[(2S,4S)-2-(3-Chloro-2-fluoro-benzylcarbamoyl)-4-dimethylaminomethyl-4-fluoro-pyrrolidin-1-yl]-2-oxo-ethyl}-indole-1-carboxylic acid amide], for which the IC50 was 580 nM.

On to `CC(=O)c1nn(CC(=O)N2C[C@H](F)C[C@H]2C(=O)NCc2cccc(Cl)c2F)c2cnc(C)cc12` [Example 626, (2S,4R)-1-[2-(3-Acetyl-5-methyl-pyrazolo[3,4-c]pyridin-1-yl)-acetyl]-4-fluoro-pyrrolidine-2-carboxylic acid 3-chloro-2-fluoro-benzylamide], for which the IC50 was 36 nM.

For the molecule `NC(=O)n1cc(NC(=O)N2[C@@H]3C[C@@H]3C[C@H]2C(=O)NCc2cccc(Cl)c2F)c2cc(OCC(=O)O)ccc21` [Example 374, (1-Carbamoyl-3-{[(1R,3S,5R)-3-(3-chloro-2-fluoro-benzylcarbamoyl)-2-aza-bicyclo[3.1.0]hexane-2-carbonyl]-amino}-1H-indol-5-yloxy)-acetic acid], the IC50 is 3 nM.

As to `COc1ccc(CNC(=O)[C@@H]2C[C@H](N)CN2C(=O)Nc2cn(C(N)=O)c3ccccc23)cc1Cl` [Example 54, (2S,4S)-4-Amino-pyrrolidine-1,2-dicarboxylic acid 1-[(1-carbamoyl-1H-indol-3-yl)-amide] 2-(3-chloro-4-methoxy-benzylamide)], the IC50 was determined as 1850 nM.

Turning to `NC(=O)n1cc(NC(=O)N2C[C@@H](N)C[C@H]2C(=O)NCc2ccccc2)c2ccccc21` [Example 28, (2S,4S)-4-Amino-pyrrolidine-1,2-dicarboxylic acid 2-benzylamide 1-[(1-carbamoyl-1H-indol-3-yl)-amide]], the IC50 was determined as 2520 nM.

For `NC(=O)c1cn(CC(=O)N2C[C@H](F)C[C@H]2C(=O)NCc2cccc(Cl)c2F)c2cc(Br)c(F)cc12` [Example 479, 6-Bromo-1-{2-[(2S,4R)-2-(3-chloro-2-fluoro-benzylcarbamoyl)-4-fluoro-pyrrolidin-1-yl]-2-oxo-ethyl}-5-fluoro-1H-indole-3-carboxylic acid amide], the IC50 amounted to 89 nM.
